The results in this text go back to publication PMC6222509, “Dibasic Derivatives of Phenylcarbamic Acid against Mycobacterial Strains: Old Drugs and New Tricks?” (Molecules : A Journal of Synthetic Chemistry and Natural …, 2018).

The test system of series [1] is M. marinum CAMP 5644 (MM). The experiment in a line: in vitro antimycobacterial MIC, broth dilution micromethod in Middlebrook 7H9. Type of series: cell-based, Mycobacterium marinum. As to conditions: Mycobacterium marinum, 504 h. In general terms: Broth dilution looks for growth in wells or tubes with falling amounts of substance.
A short description of series [2]: electronic properties, UV/Vis spectrophotometry of methanolic solutions. As to conditions: methanolic solution c = 8.0 × 10^−5 M; for log ε2 (Ch-T): charge-transfer maximum λ2 (Ch-T) = 236–238 nm; for log ε1: λ1 = 208–210 nm; for log ε3: λ3 = 278–280 nm. The format is physicochemical. An excerpt:
Electronic properties of the molecules 1a–p (Table 1) were characterized by logarithms of molar absorption coefficients (log ε) of their methanolic solutions (c = 8.0 × 10^−5 M) investigated in the UV/Vis region of an electromagnetic spectrum.
Positions of these absorption bands in the spectrum were typical for derivatives of (substituted) phenylcarbamic acid and the bands were assigned as first local excitation (λ3), charge-transfer (λ2 (Ch-T)) and second local excitation (λ1) absorption maxima, respectively. The λ1 and λ2 (Ch-T) maxima of 2-alkoxy substituted compounds 1a–d and 1i–l were slightly lower compared to those of their 3-alkoxy substituted positional isomers 1e–h and 1m–p (Table 1), respectively.
The UV/Vis spectra of methanolic solutions of analyzed compounds 1a–p (c = 8.0 × 10^−5 M) were observed on the 8452A Diode Array spectrophotometer HP-8452A (Hewlett-Packard, Palo Alto, CA, USA) at 21 °C. Methanol for UV-spectroscopy (Merck, Darmstadt, Germany) was used for preparation of these solutions. Results of the UV/Vis analyses were collected and stored digitally using the ChemStation controller software (Agilent Technologies, Waldbronn, Germany). The HP-8452A apparatus measured a complete range of compounds’ spectrum from 190 nm to 820 nm.
The log ε values for presently observed absorption maxima were calculated following the Lambert-Beer’s law, which was discussed in [35], for example, and expressed by Equation (16):A = ε × c × l(16) where the A parameter represented absorbance of a compound’s solution, the ε descriptor was a molar absorption coefficient (in L/mol/cm units) and l was path length (in cm units).

Series [3] deals with M. kansasii CNCTC My 235/80 (identical with ATCC 12478; MK 235/80). As to the kind of experiment: in vitro antimycobacterial MIC, dilution micromethod in Šula's semisynthetic medium. The format is cell-based, Mycobacterium kansasii.
The subject of series [4] is M. tuberculosis H37Ra ATCC 25177 (MTa H37Ra). The experiment in a line: in vitro antimycobacterial MIC, 96-well Middlebrook broth, alamarBlue. Type of series: cell-based, Mycobacterium tuberculosis. The conditions noted are these: 7-day cultivation, read-out: MIC MTa H37Ra 7-d. As for the experimental part: In vitro susceptibitity of given mycobacteria to reference drugs isoniazid (INH), ethambutol (EMB), ofloxacin (OFLX) or ciprofloxacin (CPX) was tested as well (Table 6 and Table 7).
A value of a minimum inhibitory concentration (MIC) was the lowest concentration of a tested compound, (i) which inhibited growth of MTv H37Rv, MK 235/80, MK 6509/96 and MA 330/80, respectively; (ii) at which no visible growth of MTa H37Ra, MS, MK DSM as well as MM was observed.
The molecules 1a–p were also in vitro screened against an avirulent M. tuberculosis H37Ra ATCC 25177 (MTa H37Ra), M. kansasii DSM 44162 (MK DSM), M. smegmatis ATCC 700084 (MS) and M. marinum CAMP 5644 (MM), respectively, in the Department of Infectious Diseases and Microbiology (Faculty of Veterinary Medicine, University of Veterinary and Pharmaceutical Sciences in Brno, Czech Republic).
Determination of a minimum inhibitory concentration (MIC) against MTa H37Ra. The mycobacterium was grown on Middlebrook broth (MB; MiddleBrook Pharmaceuticals, Inc., Westlake, TX, USA), supplemented with Oleic-Albumin-Dextrose-Catalase (OADC) supplement (Difco, Lawrence, KS, USA) and salicylate-derived mycobactin J (2 μg/mL; Allied Monitor Inc., Fayette, MO, USA), an iron-binding siderophore.
At log phase growth, a culture sample (10 mL) was centrifuged at 15,000 rpm/20 min using a bench top centrifuge MPW-65R (MPW Med Instruments, Warsaw, Poland). Following removal of the supernatant, a pellet was washed in fresh liquid Middlebrook 7H9GC broth (MiddleBrook Pharmaceuticals, Inc.) and re-suspended in a fresh OADC-supplemented MB (10 mL).
Turbidity was adjusted to match the McFarland standard No. 1 [87] containing approximately 3 × 10^8 Colony Forming Units (CFU) with MB broth. Further 1:20 dilution of the culture was performed in MB broth.
Susceptibility of MTa H37Ra was investigated in a 96-well plate format. In the experiments, sterile deionized water (300 µL) was added to all outer-perimeter wells of the plates to minimize evaporation of the medium in test wells during incubation. Each evaluated compound (100 µL) was incubated with MTa H37Ra (100 µL). Dilutions of each compound were prepared in triplicate and final concentrations varied from 1000 μg/mL to 8 μg/mL. All tested molecules were dissolved in DMSO (Sigma-Aldrich, Irvine, UK), and subsequent dilutions were made in supplemented MB broth. The plates were sealed with parafilm and incubated at 37 °C for 7 days.
Following incubation, 10% addition a water-soluble dye, the alamarBlue reagent (AbD Serotec, Kidlington, UK) was mixed into each well. This resaurin-based reagent served as an oxidation-reduction indicator of metabolic function and cellular health in cell viability bioassays.
Absorbance readings at 570 nm and 600 nm were taken, initially for background subtraction and after 24h re-incubation. The subtraction is necessary for strongly colored compounds, where the color may interfere with the interpretation of any color change. For non-interfering compounds, a blue color in a well was interpreted as absence of growth and pink color was scored as growth.
The minimum inhibitory concentration (MIC) was defined as the lowest concentration of a compound, at which no visible bacterial growth was observed. In other words, the MIC was the lowest concentration that prevented visual color change from blue to pink.
A general note: Resazurin is reduced to fluorescent resorufin, in cell work by metabolically active cells.

In series [5] the test system is M. kansasii DSM 44162 (MK DSM). The experiment in a line: in vitro antimycobacterial MIC, broth dilution micromethod in Middlebrook 7H9. The format is cell-based. The conditions noted are these: Mycobacterium kansasii, DSM 44162 / DSM 7, 168 h.
[6] abbreviates: read-out: MIC MM 21-d, 21-day cultivation, 28 °C.
Setting [7] is: Mycobacterium tuberculosis, 168 h.
[8] abbreviates: read-out: MIC MK DSM 7-d, 7-day cultivation, 37 °C.
Setting [9] is: 21-day cultivation, 28 °C, read-out: MIC MM 21-d.
Setting [10] is: 14-day cultivation, read-out: MIC MK 235/80 14-d.
Where [11] appears, read: 21-day cultivation, read-out: MIC MK 235/80 21-d.
Setting [12] is: Mycobacterium kansasii, ATCC12478, 168 h, 7-day cultivation, read-out: MIC MK 235/80 7-d.
[13] abbreviates: 7-day cultivation, 37 °C, read-out: MIC MK DSM 7-d.
The mark [14] stands for this setting: Mycobacterium kansasii, ATCC12478, 336 h, 14-day cultivation, read-out: MIC MK 235/80 14-d.
The mark [15] stands for this setting: Mycobacterium kansasii, ATCC12478, 504 h, 21-day cultivation, read-out: MIC MK 235/80 21-d.

In brackets after ≈: the same amount, converted by molar mass. Where two headings read alike, the source gives them in different places.

In the case of `CCCCCCCOc1ccccc1NC(=O)OC(CN(CCC)CCC)CN1CCCC1.Cl.Cl` (stereo not shown) [1d, 1-[2-[({[2-(heptyl-oxy)phenyl]amino}carbonyl)oxy]-3-(dipropylammonio)propyl]pyrrolidinium dichloride], the MIC in series [1] (setting [6]) was 12.5 µM; in series [3] (Mycobacterium kansasii, ATCC12478, 168 h, read-out: MIC MK 235/80 7-d), 16 µM; in series [3] (Mycobacterium kansasii, ATCC12478, 336 h, read-out: MIC MK 235/80 14-d), 16 µM; in series [3] (Mycobacterium kansasii, ATCC12478, 504 h, read-out: MIC MK 235/80 21-d), 32 µM; in series [4] (setting [7]) it was 12.5 µM; in series [5] (setting [8]) it was 6.2 µM. The “log ε2 (Ch-T)” value in series [2] came out at 4.08. Further, the “log ε1” value in series [2] amounted to 4.43. For the same molecule, the “log ε3” value in series [2] is 3.55.
Take `CCCCCCCOc1cccc(NC(=O)OC(CN(CCC)CCC)CN2CCCCCC2)c1.O=C(O)C(=O)O` (stereo not shown) [1l, 1-[2-[({[3-(hept-yloxy)phenyl]amino}carbonyl)oxy]-3-(dipropylammonio)propyl]azepanium oxalate]: the MIC in series [1] (setting [9]) turned out to be 191 µM; in series [3] (setting [10]) it was 32 µM; in series [3] (setting [11]), 32 µM; in series [3] (setting [12]) it was 16 µM; in series [4], 96 µM; in series [5] (setting [13]), 382 µM. For the same molecule, in series [2], the “log ε2 (Ch-T)” value turned out to be 4.14. In addition, in series [2], the “log ε1” value is 4.44. For the same molecule, the “log ε3” value in series [2] came out at 3.59.
As to `CCCCCCOc1ccccc1NC(=O)OC(CN(CCC)CCC)CN1CCCC1` (stereo not shown) [1c], the MIC was found to be 25.5 µM (≈ 11.4 µg/mL) in series [1] (setting [9]); 32 µM (≈ 14.3 µg/mL) in series [3] (setting [12]); 32 µM (≈ 14.3 µg/mL) in series [3] (setting [14]); 32 µM (≈ 14.3 µg/mL) in series [3] (setting [15]); 25 µM (≈ 11.2 µg/mL) in series [4] (setting [7]); 12.7 µM (≈ 5.69 µg/mL) in series [5] (setting [13]). Besides, in series [2], the “log ε2 (Ch-T)” value amounted to 4.52. For the same molecule, the “log ε1” value in series [2] was found to be 4.58. Further, the “log ε3” value in series [2] came out at 3.49.
As for `CCCCCCCOc1cccc(NC(=O)OC(CN(CCC)CCC)CN2CCCCCC2)c1.Cl.Cl` (stereo not shown) [1p, 1-[2-[({[3-(heptyloxy)phenyl]amino}carbonyl)-oxy]-3-(dipropylammonio)propyl]azepanium dichloride], the MIC was 7.1 µM in series [1] (setting [6]); 8 µM in series [3] (7-day cultivation, read-out: MIC MK 235/80 7-d); 8 µM in series [3] (setting [10]); 8 µM in series [3] (setting [11]); 8 µM in series [3] (Mycobacterium kansasii, ATCC12478, cultivation time not given, read-out: MIC MK 235/80); 7.1 µM in series [4]. In series [5] (setting [8]), the MIC is 3.6 µM. The “log ε2 (Ch-T)” value in series [2] is reported as 4.20. The “log ε1” value in series [2] came to 4.65. Moreover, the “log ε3” value in series [2] stood at 3.56.
Turning to `CCCCOc1ccccc1NC(=O)OC(CN(CCC)CCC)CN1CCCCCC1` (stereo not shown) [1i], the MIC was 51 µM (≈ 22.8 µg/mL) in series [1] (setting [9]); 32 µM (≈ 14.3 µg/mL) in series [3] (setting [12]); 62.5 µM (≈ 28 µg/mL) in series [3] (setting [14]); 62.5 µM (≈ 28 µg/mL) in series [3] (setting [15]); 203 µM (≈ 90.9 µg/mL) in series [4] (setting [7]); 51 µM (≈ 22.8 µg/mL) in series [5] (setting [13]). Also, the “log ε2 (Ch-T)” value in series [2] is on record as 4.08. In addition, the “log ε1” value in series [2] was 4.44. Besides, in series [2], the “log ε3” value is 3.57.
Turning to `CCCCCCOc1cccc(NC(=O)OC(CN(CCC)CCC)CN2CCCC2)c1` (stereo not shown) [1g], the MIC was below 3.8 µM in series [1] (setting [9]); 16 µM (≈ 7.16 µg/mL) in series [3] (setting [12]); 16 µM (≈ 7.16 µg/mL) in series [3] (setting [14]); 16 µM (≈ 7.16 µg/mL) in series [3] (setting [15]); below 3.8 µM in series [4] (setting [7]); 3.8 µM (≈ 1.7 µg/mL) in series [5] (setting [13]). Besides, the “log ε2 (Ch-T)” value in series [2] turned out to be 4.13. In addition, in series [2], the “log ε1” value was determined as 4.54. The “log ε3” value in series [2] came to 3.48.
Regarding `CCCCCOc1ccccc1NC(=O)OC(CN(CCC)CCC)CN1CCCC1` (stereo not shown) [1b], the MIC in series [1] (setting [9]) was determined as 52 µM (≈ 22.5 µg/mL); in series [3] (setting [12]), 32 µM (≈ 13.9 µg/mL); in series [3] (setting [14]), 32 µM (≈ 13.9 µg/mL); in series [3] (setting [15]) it was 62.5 µM (≈ 27.1 µg/mL); in series [4] (setting [7]) it was 52 µM (≈ 22.5 µg/mL); in series [5] (setting [13]) it was 26.1 µM (≈ 11.3 µg/mL). In addition, the “log ε2 (Ch-T)” value in series [2] is 4.05. Further, the “log ε1” value in series [2] came to 4.39. Besides, the “log ε3” value in series [2] stood at 3.51.
For `CCCCOc1cccc(NC(=O)OC(CN(CCC)CCC)CN2CCCC2)c1` (stereo not shown) [1e], the MIC amounted to 32.5 µM (≈ 13.6 µg/mL) in series [1] (setting [9]); 32 µM (≈ 13.4 µg/mL) in series [3] (setting [12]); 32 µM (≈ 13.4 µg/mL) in series [3] (setting [14]); 32 µM (≈ 13.4 µg/mL) in series [3] (setting [15]); 8.1 µM (≈ 3.4 µg/mL) in series [4] (setting [7]); 16.2 µM (≈ 6.8 µg/mL) in series [5] (setting [13]). Also, the “log ε2 (Ch-T)” value in series [2] stood at 4.24. Moreover, in series [2], the “log ε1” value is 4.65. Further, the “log ε3” value in series [2] is 3.59.
